From PubChem BioAssay (NCI)
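Protocol summary: plate cells (96-well), add compound at 5 concentrations, incubate 48 h, interpolate endpoints linearly. GI50 marks 50% less growth. TGI denotes the concentration required for complete inhibition of growth.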

Legend:
Assay in all cases: NCI tumour cell line growth inhibition, 48 h
A549 NSCLC = system: A549 NSCLC
NCI-H460 lung = system: NCI-H460 lung
UACC-257 melanoma = system: UACC-257 melanoma
ACHN renal = system: ACHN renal
MDA-MB-231 breast = system: MDA-MB-231 breast
K-562 leukemia = system: K-562 leukemia
SK-MEL-5 melanoma = system: SK-MEL-5 melanoma
T-47D breast = system: T-47D breast
UO-31 renal = system: UO-31 renal
OVCAR-3 ovarian = system: OVCAR-3 ovarian
HS 578T breast = system: HS 578T breast
OVCAR-5 ovarian = system: OVCAR-5 ovarian
HOP-62 NSCLC = system: HOP-62 NSCLC
NCI-H522 lung = system: NCI-H522 lung
PC-3 prostate = system: PC-3 prostate
MALME-3M melanoma = system: MALME-3M melanoma
HCC-2998 colon = system: HCC-2998 colon
OVCAR-4 ovarian = system: OVCAR-4 ovarian
MDA-MB-435 = system: MDA-MB-435
RPMI-8226 leukemia = system: RPMI-8226 leukemia
A498 renal = system: A498 renal
EKVX NSCLC = system: EKVX NSCLC
SK-MEL-2 melanoma = system: SK-MEL-2 melanoma
HOP-92 NSCLC = system: HOP-92 NSCLC
MCF7 breast = system: MCF7 breast
NCI/ADR-RES ovarian = system: NCI/ADR-RES ovarian
OVCAR-8 ovarian = system: OVCAR-8 ovarian
NCI-H226 lung = system: NCI-H226 lung
SK-MEL-28 melanoma = system: SK-MEL-28 melanoma
SK-OV-3 ovarian = system: SK-OV-3 ovarian
COLO 205 colon = system: COLO 205 colon
HCT-116 colon = system: HCT-116 colon
SF-539 CNS = system: SF-539 CNS
DU-145 prostate = system: DU-145 prostate
RXF 393 renal = system: RXF 393 renal
TK-10 renal = system: TK-10 renal
UACC-62 melanoma = system: UACC-62 melanoma
SW-620 colon = system: SW-620 colon
SR leukemia = system: SR leukemia
SF-295 CNS = system: SF-295 CNS
HL-60(TB) leukemia = system: HL-60(TB) leukemia
NCI-H23 lung = system: NCI-H23 lung
SN12C renal = system: SN12C renal
M14 melanoma = system: M14 melanoma
U251 CNS = system: U251 CNS
HT29 colon = system: HT29 colon
IGROV1 ovarian = system: IGROV1 ovarian
MOLT-4 leukemia = system: MOLT-4 leukemia
CCRF-CEM leukemia = system: CCRF-CEM leukemia
SNB-19 CNS = system: SNB-19 CNS
786-0 renal = system: 786-0 renal
LOX IMVI melanoma = system: LOX IMVI melanoma
BT-549 breast = system: BT-549 breast
SF-268 CNS = system: SF-268 CNS
CAKI-1 renal = system: CAKI-1 renal
KM12 colon = system: KM12 colon
SNB-75 CNS = system: SNB-75 CNS
HCT-15 colon = system: HCT-15 colon

For CCOC(=O)c1c(NCC(=O)Nc2cccc([N+](=O)[O-])c2)sc2c1CCCC2, the GI50 (A549 NSCLC) was 301 nM, the TGI (A549 NSCLC) was 2680 nM and the GI50 (NCI-H460 lung) was 265 nM. For the same compound, the TGI (NCI-H460 lung) was 707 nM, the GI50 (UACC-257 melanoma) was 401 nM and the TGI (UACC-257 melanoma) was 2130 nM. For the same compound, the GI50 (ACHN renal) was 281 nM, the TGI (ACHN renal) was 795 nM and the GI50 (MDA-MB-231 breast) was 280 nM. It also gave a TGI (MDA-MB-231 breast) of 1010 nM, a GI50 (K-562 leukemia) of 278 nM and a GI50 (SK-MEL-5 melanoma) of 182 nM. For the same compound, the TGI (SK-MEL-5 melanoma) was 354 nM, the GI50 (T-47D breast) was 728 nM and the TGI (T-47D breast) was 3120 nM. It also gave a GI50 (UO-31 renal) of 198 nM, a TGI (UO-31 renal) of 583 nM and a GI50 (OVCAR-3 ovarian) of 289 nM. It also gave a TGI (OVCAR-3 ovarian) of 770 nM, a GI50 (HS 578T breast) of 264 nM and a TGI (HS 578T breast) of 773 nM. It also gave a GI50 (OVCAR-5 ovarian) of 270 nM, a TGI (OVCAR-5 ovarian) of 779 nM and a GI50 (HOP-62 NSCLC) of 416 nM. The TGI (HOP-62 NSCLC) was 1990 nM, the GI50 (NCI-H522 lung) was 226 nM and the TGI (NCI-H522 lung) was 739 nM. It also gave a GI50 (PC-3 prostate) of 250 nM, a TGI (PC-3 prostate) of 726 nM and a GI50 (MALME-3M melanoma) of 181 nM. The TGI (MALME-3M melanoma) was 407 nM, the GI50 (HCC-2998 colon) was 207 nM and the TGI (HCC-2998 colon) was 499 nM. For the same compound, the GI50 (OVCAR-4 ovarian) was 338 nM, the TGI (OVCAR-4 ovarian) was 3730 nM and the GI50 (MDA-MB-435) was 328 nM. The TGI (MDA-MB-435) was 1090 nM, the GI50 (RPMI-8226 leukemia) was 310 nM and the TGI (RPMI-8226 leukemia) was 1060 nM. For the same compound, the GI50 (A498 renal) was 194 nM, the TGI (A498 renal) was 392 nM and the GI50 (EKVX NSCLC) was 718 nM. For the same compound, the TGI (EKVX NSCLC) was 3640 nM, the GI50 (SK-MEL-2 melanoma) was 436 nM and the TGI (SK-MEL-2 melanoma) was 2290 nM. For the same compound, the GI50 (HOP-92 NSCLC) was 209 nM, the TGI (HOP-92 NSCLC) was 696 nM and the GI50 (MCF7 breast) was 272 nM. For the same compound, the TGI (MCF7 breast) was 974 nM, the GI50 (NCI/ADR-RES ovarian) was 267 nM and the TGI (NCI/ADR-RES ovarian) was 762 nM. It also gave a GI50 (OVCAR-8 ovarian) of 351 nM, a TGI (OVCAR-8 ovarian) of over 100000 nM and a GI50 (NCI-H226 lung) of 194 nM. The TGI (NCI-H226 lung) was 471 nM, the GI50 (SK-MEL-28 melanoma) was 235 nM and the TGI (SK-MEL-28 melanoma) was 596 nM. It also gave a GI50 (SK-OV-3 ovarian) of 294 nM, a TGI (SK-OV-3 ovarian) of 856 nM and a GI50 (COLO 205 colon) of 274 nM. It also gave a TGI (COLO 205 colon) of 774 nM, a GI50 (HCT-116 colon) of 263 nM and a TGI (HCT-116 colon) of 805 nM. The GI50 (SF-539 CNS) was 242 nM, the TGI (SF-539 CNS) was 644 nM and the GI50 (DU-145 prostate) was 316 nM. It also gave a TGI (DU-145 prostate) of 1360 nM, a GI50 (RXF 393 renal) of 182 nM and a TGI (RXF 393 renal) of 360 nM. It also gave a GI50 (TK-10 renal) of 256 nM, a TGI (TK-10 renal) of 782 nM and a GI50 (UACC-62 melanoma) of 173 nM. The TGI (UACC-62 melanoma) was 380 nM, the GI50 (SW-620 colon) was 315 nM and the TGI (SW-620 colon) was 1210 nM. It also gave a GI50 (SR leukemia) of 276 nM, a GI50 (SF-295 CNS) of 310 nM and a TGI (SF-295 CNS) of 1180 nM. The GI50 (HL-60(TB) leukemia) was 280 nM, the TGI (HL-60(TB) leukemia) was 4200 nM and the GI50 (NCI-H23 lung) was 217 nM. For the same compound, the TGI (NCI-H23 lung) was 722 nM, the GI50 (SN12C renal) was 256 nM and the TGI (SN12C renal) was 793 nM. It also gave a GI50 (M14 melanoma) of 183 nM, a TGI (M14 melanoma) of 361 nM and a GI50 (U251 CNS) of 284 nM. The TGI (U251 CNS) was 979 nM, the GI50 (HT29 colon) was 273 nM and the TGI (HT29 colon) was 1060 nM. The GI50 (IGROV1 ovarian) was 236 nM, the TGI (IGROV1 ovarian) was 738 nM and the GI50 (MOLT-4 leukemia) was 246 nM. The TGI (MOLT-4 leukemia) was 4160 nM, the GI50 (CCRF-CEM leukemia) was 253 nM and the GI50 (SNB-19 CNS) was 306 nM. It also gave a TGI (SNB-19 CNS) of 1080 nM, a GI50 (786-0 renal) of 271 nM and a TGI (786-0 renal) of 840 nM. It also gave a GI50 (LOX IMVI melanoma) of 195 nM, a TGI (LOX IMVI melanoma) of 405 nM and a GI50 (BT-549 breast) of 211 nM. The TGI (BT-549 breast) was 605 nM, the GI50 (SF-268 CNS) was 354 nM and the TGI (SF-268 CNS) was 1690 nM. The GI50 (CAKI-1 renal) was 251 nM, the TGI (CAKI-1 renal) was 735 nM and the GI50 (KM12 colon) was 315 nM. The TGI (KM12 colon) was 966 nM, the GI50 (SNB-75 CNS) was 214 nM and the TGI (SNB-75 CNS) was 1690 nM. It also gave a GI50 (HCT-15 colon) of 265 nM and a TGI (HCT-15 colon) of 1330 nM.
